± gives the uncertainty stated by the source.
Test: xn = mol fraction of the nth substance listed

CCCCCCCCCCCC[P+](CC)(CC)CC.N#Cc1ccc[n-]1 + OCC(O)CO
100 kPa
Conditions | viscosity [mPa·s]
293.15 K, x1 = 0.542 | 941 ± 140
293.15 K, x1 = 0.677 | 861 ± 130
298.15 K, x1 = 0.003 | 864 ± 130
298.15 K, x1 = 0.01 | 905 ± 140
298.15 K, x1 = 0.343 | 974 ± 150
298.15 K, x1 = 0.426 | 715 ± 110
303.15 K, x1 = 0.041 | 788 ± 120
303.15 K, x1 = 0.056 | 912 ± 140
303.15 K, x1 = 0.196 | 957 ± 140
303.15 K, x1 = 0.292 | 734 ± 110

Cc1ccccc1C + c1ccccc1
viscosity [mPa·s]
Conditions | 293.15 K | 303.15 K | 308.15 K | 313.15 K | 318.15 K | 323.15 K
101 kPa, x2 = 0.1 | – | 0.657 ± 0.004 | 0.622 ± 0.004 | 0.594 ± 0.004 | 0.572 ± 0.004 | –
101 kPa, x2 = 0.2 | – | 0.665 ± 0.004 | 0.631 ± 0.004 | 0.597 ± 0.004 | 0.573 ± 0.004 | –
101 kPa, x2 = 0.4 | – | 0.69 ± 0.005 | 0.668 ± 0.005 | 0.599 ± 0.004 | 0.574 ± 0.004 | –
101 kPa, x2 = 0.6 | – | 0.652 ± 0.004 | 0.623 ± 0.004 | 0.592 ± 0.004 | 0.55 ± 0.004 | –
101 kPa, x2 = 0.802 | – | 0.645 ± 0.004 | 0.61 ± 0.004 | 0.577 ± 0.004 | 0.552 ± 0.004 | –
101 kPa, x2 = 0.902 | – | 0.67 ± 0.004 | 0.641 ± 0.004 | 0.623 ± 0.004 | 0.587 ± 0.004 | –
101.33 kPa, x2 = 0.1 | – | 0.657 ± 0.07 | 0.622 ± 0.066 | 0.594 ± 0.064 | 0.572 ± 0.062 | –
101.33 kPa, x2 = 0.2 | – | 0.665 ± 0.07 | 0.631 ± 0.067 | 0.597 ± 0.064 | 0.573 ± 0.062 | –
101.33 kPa, x2 = 0.2114 | 0.749 ± 0.0065 | 0.657 ± 0.0058 | – | 0.583 ± 0.0053 | – | 0.519 ± 0.0048
101.33 kPa, x2 = 0.4 | – | 0.69 ± 0.072 | 0.668 ± 0.07 | 0.599 ± 0.064 | 0.574 ± 0.062 | –
101.33 kPa, x2 = 0.4129 | 0.71 ± 0.0062 | 0.625 ± 0.0056 | – | 0.554 ± 0.005 | – | 0.493 ± 0.0046
101.33 kPa, x2 = 0.5938 | 0.685 ± 0.0061 | 0.601 ± 0.0054 | – | 0.531 ± 0.0049 | – | 0.474 ± 0.0044
101.33 kPa, x2 = 0.6 | – | 0.652 ± 0.069 | 0.623 ± 0.067 | 0.592 ± 0.064 | 0.55 ± 0.06 | –
101.33 kPa, x2 = 0.7195 | 0.669 ± 0.0059 | 0.585 ± 0.0053 | – | 0.517 ± 0.0048 | – | 0.461 ± 0.0043
101.33 kPa, x2 = 0.802 | – | 0.645 ± 0.068 | 0.61 ± 0.065 | 0.577 ± 0.063 | 0.552 ± 0.06 | –
101.33 kPa, x2 = 0.8514 | 0.658 ± 0.0059 | 0.575 ± 0.0052 | – | 0.506 ± 0.0047 | – | 0.45 ± 0.0043
101.33 kPa, x2 = 0.902 | – | 0.67 ± 0.071 | 0.641 ± 0.068 | 0.623 ± 0.067 | 0.587 ± 0.063 | –

CN1CCN(C)C1=O + CCCCCCn1cc[n+](C)c1.[Cl-]
100 kPa
Conditions | viscosity [mPa·s]
298.15 K, x2 = 0.1007 | 4.815 ± 0.21
303.15 K, x2 = 0.7981 | 978.5 ± 99

CC(C)CCC[C@@H](C)[C@H]1CC[C@H]2[C@@H]3CC=C4C[C@@H](O)CC[C@]4(C)[C@H]3CC[C@]12C + Cc1ccccc1
viscosity [mPa·s], 101.33 kPa
Conditions | x1 = 0.0038 | x1 = 0.00638 | x1 = 0.01075 | x1 = 0.01353 | x1 = 0.01707 | x1 = 0.02159 | x1 = 0.02737 | x1 = 0.03485
298 K | 0.567 ± 0.007 | 0.579 ± 0.007 | 0.604 ± 0.008 | 0.616 ± 0.008 | 0.639 ± 0.008 | 0.672 ± 0.008 | 0.716 ± 0.009 | 0.787 ± 0.01
303 K | 0.534 ± 0.007 | 0.546 ± 0.007 | 0.569 ± 0.007 | 0.579 ± 0.007 | 0.599 ± 0.008 | 0.628 ± 0.008 | 0.668 ± 0.008 | 0.731 ± 0.009
313 K | 0.478 ± 0.006 | 0.488 ± 0.007 | 0.508 ± 0.007 | 0.515 ± 0.007 | 0.533 ± 0.007 | 0.556 ± 0.007 | 0.591 ± 0.008 | 0.64 ± 0.008
323 K | 0.432 ± 0.006 | 0.44 ± 0.006 | 0.458 ± 0.006 | 0.464 ± 0.006 | 0.476 ± 0.006 | 0.497 ± 0.007 | 0.523 ± 0.007 | 0.562 ± 0.007

Cc1ccccc1C + CCCCO
308.15 K, 101 kPa
Conditions | viscosity [mPa·s]
x2 = 0.0515 | 0.62 ± 0.013
x2 = 0.1019 | 0.659 ± 0.014
x2 = 0.1872 | 0.672 ± 0.014
x2 = 0.3031 | 0.687 ± 0.014
x2 = 0.4127 | 0.752 ± 0.016
x2 = 0.5164 | 0.808 ± 0.017
x2 = 0.6146 | 0.912 ± 0.019
x2 = 0.7079 | 1.021 ± 0.021
x2 = 0.7965 | 1.135 ± 0.024
x2 = 0.8809 | 1.326 ± 0.028
x2 = 0.9612 | 1.564 ± 0.032

CCCCCCCCCCO + C1CCCCC1
Conditions | viscosity [mPa·s]
293.15 K, 100 kPa, x2 = 0.0822 | 12.17 ± 0.98
293.15 K, 100 kPa, x2 = 0.1602 | 10.37 ± 0.83
293.15 K, 100 kPa, x2 = 0.2397 | 8.74 ± 0.7
293.15 K, 100 kPa, x2 = 0.3476 | 6.8 ± 0.55
293.15 K, 100 kPa, x2 = 0.4402 | 5.45 ± 0.44
293.15 K, 100 kPa, x2 = 0.5604 | 3.92 ± 0.32
293.15 K, 100 kPa, x2 = 0.6506 | 2.95 ± 0.24
293.15 K, 100 kPa, x2 = 0.7397 | 2.18 ± 0.18
293.15 K, 100 kPa, x2 = 0.8508 | 1.48 ± 0.12
293.15 K, 100 kPa, x2 = 0.94 | 1.1 ± 0.09
303.15 K, 100 kPa, x2 = 0.0822 | 8.4 ± 0.67
303.15 K, 100 kPa, x2 = 0.1602 | 7.28 ± 0.58
303.15 K, 100 kPa, x2 = 0.2397 | 6.22 ± 0.5
303.15 K, 100 kPa, x2 = 0.3476 | 4.96 ± 0.4
303.15 K, 100 kPa, x2 = 0.4402 | 4.02 ± 0.32
303.15 K, 100 kPa, x2 = 0.5604 | 2.97 ± 0.24
303.15 K, 100 kPa, x2 = 0.6506 | 2.31 ± 0.19
303.15 K, 100 kPa, x2 = 0.7397 | 1.77 ± 0.14
303.15 K, 100 kPa, x2 = 0.8508 | 1.29 ± 0.1
303.15 K, 100 kPa, x2 = 0.94 | 0.98 ± 0.08
303.15 K, 101.33 kPa, x1 = 0.1009 | 1.08 ± 0.013
303.15 K, 101.33 kPa, x1 = 0.1983 | 1.404 ± 0.017
303.15 K, 101.33 kPa, x1 = 0.2985 | 1.829 ± 0.021
303.15 K, 101.33 kPa, x1 = 0.3954 | 2.357 ± 0.027
303.15 K, 101.33 kPa, x1 = 0.5 | 3.076 ± 0.035
303.15 K, 101.33 kPa, x1 = 0.5845 | 3.781 ± 0.043
303.15 K, 101.33 kPa, x1 = 0.6939 | 4.863 ± 0.054
303.15 K, 101.33 kPa, x1 = 0.7949 | 6.023 ± 0.064
303.15 K, 101.33 kPa, x1 = 0.8949 | 7.33 ± 0.076
308 K, 101 kPa, x2 = 0.0801 | 6.912 ± 0.049
308 K, 101 kPa, x2 = 0.2421 | 5.397 ± 0.04
308 K, 101 kPa, x2 = 0.3455 | 4.468 ± 0.033
308 K, 101 kPa, x2 = 0.4703 | 3.396 ± 0.025
308 K, 101 kPa, x2 = 0.5762 | 2.579 ± 0.019
308 K, 101 kPa, x2 = 0.6347 | 2.14 ± 0.016
308 K, 101 kPa, x2 = 0.7203 | 1.702 ± 0.013
308 K, 101 kPa, x2 = 0.8752 | 1.061 ± 0.0084
308 K, 101 kPa, x2 = 0.9408 | 0.86 ± 0.0069
313.15 K, 100 kPa, x2 = 0.0822 | 5.95 ± 0.48
313.15 K, 100 kPa, x2 = 0.1602 | 5.22 ± 0.42
313.15 K, 100 kPa, x2 = 0.2397 | 4.53 ± 0.36
313.15 K, 100 kPa, x2 = 0.3476 | 3.69 ± 0.3
313.15 K, 100 kPa, x2 = 0.4402 | 3.04 ± 0.24
313.15 K, 100 kPa, x2 = 0.5604 | 2.29 ± 0.18
313.15 K, 100 kPa, x2 = 0.6506 | 1.82 ± 0.15
313.15 K, 100 kPa, x2 = 0.7397 | 1.43 ± 0.12
313.15 K, 100 kPa, x2 = 0.8508 | 1.05 ± 0.08
313.15 K, 100 kPa, x2 = 0.94 | 0.81 ± 0.07
323.15 K, 100 kPa, x2 = 0.0822 | 4.35 ± 0.35
323.15 K, 100 kPa, x2 = 0.1602 | 3.85 ± 0.31
323.15 K, 100 kPa, x2 = 0.2397 | 3.36 ± 0.27
323.15 K, 100 kPa, x2 = 0.3476 | 2.78 ± 0.22
323.15 K, 100 kPa, x2 = 0.4402 | 2.35 ± 0.19
323.15 K, 100 kPa, x2 = 0.5604 | 1.84 ± 0.15
323.15 K, 100 kPa, x2 = 0.6506 | 1.51 ± 0.12
323.15 K, 100 kPa, x2 = 0.7397 | 1.22 ± 0.1
323.15 K, 100 kPa, x2 = 0.8508 | 0.91 ± 0.07
323.15 K, 100 kPa, x2 = 0.94 | 0.71 ± 0.06

CCCCCCCCCCO + CO
viscosity [mPa·s], 101 kPa
Conditions | 298.15 K | 308.15 K | 318.15 K
x2 = 0.05 | 10.38 ± 0.1 | 7.137 ± 0.07 | 5.136 ± 0.047
x2 = 0.1 | 9.75 ± 0.097 | 6.75 ± 0.065 | 4.899 ± 0.044
x2 = 0.15 | 9.096 ± 0.089 | 6.352 ± 0.061 | 4.649 ± 0.041
x2 = 0.2 | 8.429 ± 0.082 | 5.944 ± 0.057 | 4.39 ± 0.039
x2 = 0.25 | 7.757 ± 0.074 | 5.531 ± 0.052 | 4.121 ± 0.036
x2 = 0.3 | 7.086 ± 0.067 | 5.115 ± 0.048 | 3.847 ± 0.034
x2 = 0.35 | 6.425 ± 0.06 | 4.699 ± 0.044 | 3.567 ± 0.031
x2 = 0.4 | 5.779 ± 0.054 | 4.287 ± 0.039 | 3.285 ± 0.029
x2 = 0.45 | 5.154 ± 0.048 | 3.88 ± 0.035 | 3.003 ± 0.027
x2 = 0.5 | 4.554 ± 0.042 | 3.481 ± 0.031 | 2.721 ± 0.024
x2 = 0.55 | 3.984 ± 0.036 | 3.093 ± 0.027 | 2.443 ± 0.022
x2 = 0.6 | 3.448 ± 0.031 | 2.719 ± 0.024 | 2.171 ± 0.019
x2 = 0.65 | 2.947 ± 0.026 | 2.36 ± 0.02 | 1.905 ± 0.017
x2 = 0.7 | 2.485 ± 0.021 | 2.02 ± 0.017 | 1.649 ± 0.014
x2 = 0.75 | 2.063 ± 0.018 | 1.7 ± 0.014 | 1.405 ± 0.012
x2 = 0.8 | 1.681 ± 0.014 | 1.403 ± 0.012 | 1.174 ± 0.01
x2 = 0.85 | 1.34 ± 0.012 | 1.131 ± 0.01 | 0.958 ± 0.008
x2 = 0.9 | 1.038 ± 0.009 | 0.886 ± 0.008 | 0.76 ± 0.007
x2 = 0.95 | 0.776 ± 0.007 | 0.669 ± 0.006 | 0.582 ± 0.006

— the CheMixHub viscosity set
